Results reported in patent publication US20160108049A1 (TAKEDA Gmbh, priority 2011, published 2016).

Columns and labels:
[1] = target: T1, human PDE5 (Homo sapiens, UniProt O76074); assay: Inhibition of PDE5 activity (platelet lysate, SPA assay); format: biochemical; conditions: 0.5 μM cGMP, read-out: PDE5 Inhibitory values measured as -logIC50 (converted)
T1 construct: from tissue; host or cells: human platelets from fresh donor blood (platelet lysate)
Method: Method for Measuring Inhibition of PDE5 Activity
As a source for human PDE5, platelets were used. For that purpose, 150 ml fresh blood from human donors anticoagulated with citrate [final concentration 0.3% (w/v)] was centrifuged at 200 g for 10 min to obtain the so-called platelet-rich-plasma (PRP) as a supernatant. […] After centrifugation (1,400 g, 10 min) the cell pellet was resuspended in 3 ml homogenization buffer (NaCl 140 mM, KCl 3.8 mM, EGTA (ethylene glycol tetraacetic acid) 1 mM, MgCl2 1 mM, Tris-HCl 20 mM, beta-mercaptoethanol 1 mM, pH 8.2) plus protease-inhibitor mix resulting in final concentrations of 0.5 mM Pefablock (Roche), 10 μM Leupeptin, 5 μM Trypsine inhibitor, 2 mM Benzamidin and 10 μM Pepstatin A. The suspension was sonicated and thereafter centrifuged for 15 min at 10,000 g. The resulting supernatant (platelet lysate) was used for enzymatic assays.
PDE5 activities were measured in a 96-well platform using SPA (scintillation proximity assay) yttrium silicate beads (RPNQ1050 from GE Healthcare). In a first step the PDE activity operated hydrolysis of either [^3H] cGMP (substrate) into [^3H] 5′GMP. In a second step substrate and product were distinguished following addition of SPA yttrium silicate beads. Indeed, in the presence of zinc sulphate the linear [^3H] […] Close proximity of bound [^3H] […] The test volume was 100 μl and contained 20 mM Tris buffer (pH 7.4), 0.1 mg of BSA (bovine serum albumin)/ml, 5 mM Mg^2+, 1 μM motapizone (PDE3 Inhibitor), 10 nM PDE2 inhibitor 2-(3,4-dimethoxybenzyl)-7-[(1R,2R)-2-hydroxy-1-(2-phenylethyl)propyl]-5-methylimidazo[5,1-f][1,2,4]triazin-4(3H)-one, 0.5 μM cGMP (cyclic guanosine monophosphate) (including about 50,000 cpm of [3H]cGMP as a tracer) (substrate), 1 μl of the respective compound dilution in dimethylsulfoxide (DMSO) and sufficient PDE5-containing platelet lysat (10,000×g supernatant, see above) to ensure that 10-20% of the cGMP was converted under the said experimental conditions. […] After a preincubation of 5 min at 37° C., the reaction was commenced by adding the substrate (cGMP) and the assay was incubated for a further 15 min. The reaction was terminated by adding SPA beads (50 μl). In agreement with the manufacturer's instructions, the SPA beads had previously been resuspended in water, but were then diluted 1:3 (v/v) in water. This diluted solution also contained 3 mM 8-methoxymethyl-3-isobutyl-1-methylxanthine (IBMX) to ensure a complete block of PDE activity. Once the beads were sedimented (>30 min), the MTP's were analyzed in commercially available luminescence detection devices. The corresponding IC50 values of the compounds for inhibition of PDE activity were determined from the concentration-effect curves by means of non-linear regression.
(§1) The numbers of the compounds correspond to the numbers of the examples.

[2] = target: T2, PDE4B1 (Homo sapiens, UniProt Q07343); assay: Inhibition of PDE4 activity (PDE4B1, SPA assay); format: biochemical; conditions: recombinant PDE4B1, 0.5 μM cAMP; read-out: PDE4B1 Inhibitory values measured as -logIC50 (converted)
T2 construct: made in house; host or cells: SF21 insect cells (baculovirus; virus made in SF9 cells, pCR-Bac vector)
Method: Method for Measuring Inhibition of PDE4 Activity
The PDE4B1 (GB no. L20966) was a gift of Prof. M. Conti (Stanford University, USA). It was amplified from the original plasmid (pCMV5) via PCR with primers Rb18 (5′-[…]-3′) and Rb10 (5′-[…]-3′) and cloned into the pCR-Bac vector (Invitrogen, Groningen, NL).
The recombinant baculovirus was prepared by means of homologous recombination in SF9 insect cells. The expression plasmids were cotransfected with Baculo-Gold DNA (Pharmingen, Hamburg) using a standard protocol (Pharmingen, Hamburg). Wt virus-free recombinant virus supernatants were selected using plaque assay methods. After that, high-titre virus supernatants were prepared by amplifying 3 times. PDE4B1 was expressed in SF21 cells by infecting 2×10^6 cells/ml with an MOI (multiplicity of infection) between 1 and 10 in the serum-free SF900 medium (GIBCO Life Technologies, Karlsruhe, Germany) The cells were cultured at 28° C. for 48-72 hours, after which they were pelleted for 5-10 min at 1000×g and 4° C.
The SF21 insect cells were resuspended, at a concentration of approx. 10^7 cells/ml, in ice-cold (4° C.) homogenization buffer (20 mM Tris, pH 8.2, containing the following additions: 140 mM NaCl, 3.8 mM KCl, 1 mM EGTA, 1 mM MgCl2, 10 mM β-mercaptoethanol, 2 mM benzamidine, 0.4 mM Pefablock, 10 μM leupeptin, 10 μM pepstatin A, 5 μM trypsin inhibitor) and disrupted by ultrasonication. The homogenate was then centrifuged for 10 min at 1000×g and the supernatant was stored at −80° C. until subsequent use (see below). The protein content was determined by the Bradford method (BioRad, Munich) using BSA (Bovine serum albumin) as the standard.
PDE4B1 activities were measured in a 96-well platform using SPA (scintillation proximity assay) yttrium silicate beads (RPNQ1050 from GE Healthcare). In a first step the PDE activity operated hydrolysis of either [^3H] cAMP (substrate) into […]. In a second step substrate and product were distinguished following addition of SPA yttrium silicate beads. […] Close proximity of bound [^3H] […] The test volume was 100 μl and finally contained 20 mM Tris buffer (pH 7.4), 0.1 mg/ml of BSA, 5 mM Mg^2+, 0.5 μM cAMP (including about 50,000 cpm of [3H]cAMP) as substrate, 1 μl of the respective substance dilution in DMSO and sufficient recombinant PDE (1000×g supernatant, see above) to ensure that 10-20% of the cAMP was converted under the said experimental conditions. […] After a preincubation of 5 min at 37° C., the reaction was commenced by adding the substrate (cAMP) and the assays were incubated for a further 15 min. Reactions were terminated by adding SPA beads (50 μl). In agreement with the manufacturer's instructions, the SPA beads had previously been resuspended in water, but were then diluted 1:3 (v/v) in water. This diluted solution further contained 3 mM IBMX (isobutylmethylxanthine) to ensure a complete block of PDE activity. Once the beads were sedimented (>30 min), the MTP's (micro titerplate) were analyzed in commercially available […]. The corresponding IC50 values of the compounds for inhibition of PDE4B1 activity were determined from the concentration-effect curves by means of non-linear regression.
as §1

T2 sequence (Q07343 whole entry): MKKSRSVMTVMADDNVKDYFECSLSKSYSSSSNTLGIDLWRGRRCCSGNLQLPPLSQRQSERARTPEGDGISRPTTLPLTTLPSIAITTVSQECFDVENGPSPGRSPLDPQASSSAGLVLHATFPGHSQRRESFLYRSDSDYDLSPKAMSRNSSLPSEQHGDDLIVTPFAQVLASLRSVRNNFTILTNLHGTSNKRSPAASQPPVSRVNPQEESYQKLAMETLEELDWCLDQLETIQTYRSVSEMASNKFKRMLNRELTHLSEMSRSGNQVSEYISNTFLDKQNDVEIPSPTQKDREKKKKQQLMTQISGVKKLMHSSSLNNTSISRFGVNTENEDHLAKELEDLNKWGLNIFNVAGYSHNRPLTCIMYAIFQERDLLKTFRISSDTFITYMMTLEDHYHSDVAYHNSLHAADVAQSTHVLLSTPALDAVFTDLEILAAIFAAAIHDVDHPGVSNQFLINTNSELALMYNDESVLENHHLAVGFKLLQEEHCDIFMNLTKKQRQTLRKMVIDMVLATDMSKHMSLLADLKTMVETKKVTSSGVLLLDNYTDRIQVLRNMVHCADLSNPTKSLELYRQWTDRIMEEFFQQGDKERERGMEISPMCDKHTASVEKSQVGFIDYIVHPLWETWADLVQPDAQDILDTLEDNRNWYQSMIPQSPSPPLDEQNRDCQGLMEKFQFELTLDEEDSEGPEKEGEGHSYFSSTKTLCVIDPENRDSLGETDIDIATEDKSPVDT

| Structure (SMILES) | IC50 [1] [nM] | IC50 [2] [nM] |
| --- | --- | --- |
| COc1ccc(C2=NN(C3CCN(C(=O)[C@@H](Cc4cccc(C)c4)NC(=O)c4c(C)[nH]c5c(-c6c(OCC7CC7)ccc7c6OCO7)ncnc45)CC3)C(=O)[C@@H]3CCCC[C@H]23)cc1OC [Example 17, 4-[5-(cyclopropylmethoxy)-1,3-benzodioxol-4-yl]-N-[(2R)-1-{4-[(4aS,8aR)-4-(3,4-dimethoxyphenyl)-1-oxo-4a,5,6,7,8,8a-hexahydrophthalazin-2(1H)-yl]piperidin-1-yl}-3-(3-methylphenyl)-1-oxopropan-2-yl]-6-methyl-5H-pyrrolo[3,2-d]pyrimidine-7-carboxamide] | < 1 | < 1 |
| COc1ccc(C2=NN(C3CCN(C(=O)[C@@H](Cc4ccc(F)c(F)c4)NC(=O)c4c(C)[nH]c5c(-c6c(OCC7CC7)ccc7c6OCO7)ncnc45)CC3)C(=O)[C@@H]3CCCC[C@H]23)cc1OC [Example 18, 4-[5-(cyclopropylmethoxy)-1,3-benzodioxol-4-yl]-N-[(2R)-3-(3,4-difluorophenyl)-1-{4-[(4aS,8aR)-4-(3,4-dimethoxyphenyl)-1-oxo-4a,5,6,7,8,8a-hexahydrophthalazin-2(1H)-yl]piperidin-1-yl}-1-oxopropan-2-yl]-6-methyl-5H-pyrrolo[3,2-d]pyrimidine-7-carboxamide] | 1 to 10 | < 1 |
| COc1ccc(C2=NN(C3CCN(C(=O)[C@@H](Cc4ccc(F)c(F)c4)NC(=O)c4c[nH]c5c(-c6c(OCC7CC7)ccc7c6OCO7)ncnc45)CC3)C(=O)[C@@H]3CCCC[C@H]23)cc1OC [Example 19, 4-[5-(cyclopropylmethoxy)-1,3-benzodioxol-4-yl]-N-[(2R)-3-(3,4-difluorophenyl)-1-{4-[(4aS,8aR)-4-(3,4-dimethoxyphenyl)-1-oxo-4a,5,6,7,8,8a-hexahydrophthalazin-2(1H)-yl]piperidin-1-yl}-1-oxopropan-2-yl]-5H-pyrrolo[3,2-d]pyrimidine-7-carboxamide] | 1 to 10 | 1 to 10 |
| COc1ccc(C2=NN(C3CCN(C(=O)[C@@H](Cc4cccc(C)c4)NC(=O)c4c[nH]c5c(-c6c(OCC7CC7)ccc7c6OCO7)ncnc45)CC3)C(=O)[C@@H]3CCCC[C@H]23)cc1OC [Example 20, 4-[5-(cyclopropylmethoxy)-1,3-benzodioxol-4-yl]-N-[(2R)-1-{4-[(4aS,8aR)-4-(3,4-dimethoxyphenyl)-1-oxo-4a,5,6,7,8,8a-hexahydrophthalazin-2(1H)-yl]piperidin-1-yl}-3-(3-methylphenyl)-1-oxopropan-2-yl]-5H-pyrrolo[3,2-d]pyrimidine-7-carboxamide] | < 1 | 1 to 10 |
| COc1ccc(C2=NN(C3CCN(C(=O)[C@@H](Cc4ccc(C)cc4)NC(=O)c4c[nH]c5c(-c6c(OCC7CC7)ccc7c6OCO7)ncnc45)CC3)C(=O)[C@@H]3CCCC[C@H]23)cc1OC [Example 21, 4-[5-(cyclopropylmethoxy)-1,3-benzodioxol-4-yl]-N-[(2R)-1-{4-[(4aS,8aR)-4-(3,4-dimethoxyphenyl)-1-oxo-4a,5,6,7,8,8a-hexahydrophthalazin-2(1H)-yl]piperidin-1-yl}-3-(4-methylphenyl)-1-oxopropan-2-yl]-5H-pyrrolo[3,2-d]pyrimidine-7-carboxamide] | < 1 | 1 to 10 |
| COc1ccc(C[C@H](NC(=O)c2c[nH]c3c(-c4c(OCC5CC5)ccc5c4OCO5)ncnc23)C(=O)N2CCC(N3N=C(c4ccc(OC)c(OC)c4)[C@H]4CCCC[C@H]4C3=O)CC2)cc1OC [Example 25, 4-[5-(cyclopropylmethoxy)-1,3-benzodioxol-4-yl]-N-[(2S)-3-(3,4-dimethoxyphenyl)-1-{4-[(4aS,8aR)-4-(3,4-dimethoxyphenyl)-1-oxo-4a,5,6,7,8,8a-hexahydrophthalazin-2(1H)-yl]piperidin-1-yl}-1-oxopropan-2-yl]-5H-pyrrolo[3,2-d]pyrimidine-7-carboxamide] | 1 to 10 | 1 to 10 |

Next, values leading:

| IC50 [1] [nM] | IC50 [2] [nM] | Structure (SMILES) |
| --- | --- | --- |
| 1 to 10 | 1 to 10 | COc1cc(OCC2CC2)c(-c2ncnc3c(C(=O)N[C@H](Cc4ccccc4)C(=O)N4CCC(N5N=C(c6ccc(OC)c(OC)c6)[C@H]6CCCC[C@H]6C5=O)CC4)c(C)[nH]c23)cc1F [Example 22, 4-[2-(cyclopropylmethoxy)-5-fluoro-4-methoxyphenyl]-N-[(2R)-1-{4-[(4aS,8aR)-4-(3,4-dimethoxyphenyl)-1-oxo-4a,5,6,7,8,8a-hexahydrophthalazin-2(1H)-yl]piperidin-1-yl}-1-oxo-3-phenylpropan-2-yl]-6-methyl-5H-pyrrolo[3,2-d]pyrimidine-7-carboxamide] |
| 1 to 10 | 1 to 10 | COc1cc(OCC2CC2)c(-c2ncnc3c(C(=O)N[C@H](Cc4ccccc4)C(=O)N4CCC(N5N=C(c6ccc(OC)c(OC)c6)[C@H]6CCCC[C@H]6C5=O)CC4)c[nH]c23)cc1F [Example 23, 4-[2-(cyclopropylmethoxy)-5-fluoro-4-methoxyphenyl]-N-[(2R)-1-{4-[(4aS,8aR)-4-(3,4-dimethoxyphenyl)-1-oxo-4a,5,6,7,8,8a-hexahydrophthalazin-2(1H)-yl]piperidin-1-yl}-1-oxo-3-phenylpropan-2-yl]-5H-pyrrolo[3,2-d]pyrimidine-7-carboxamide] |
| 1 to 10 | 1 to 10 | COc1cc(-c2ncnc3c(C(=O)N[C@H](Cc4ccccc4)C(=O)N4CCC(N5N=C(c6ccc(OC)c(OC)c6)[C@H]6CCCC[C@H]6C5=O)CC4)c[nH]c23)c(OCC2CC2)cc1F [Example 24, 4-[2-(cyclopropylmethoxy)-4-fluoro-5-methoxyphenyl]-N-[(2R)-1-{4-[(4aS,8aR)-4-(3,4-dimethoxyphenyl)-1-oxo-4a,5,6,7,8,8a-hexahydrophthalazin-2(1H)-yl]piperidin-1-yl}-1-oxo-3-phenylpropan-2-yl]-5H-pyrrolo[3,2-d]pyrimidine-7-carboxamide] |
